Reference: PMC8708872, “Discovery of a Novel Template, 7-Substituted 7-Deaza-4′-Thioadenosine Derivatives as Multi-Kinase Inhibitors” (Pharmaceuticals, 2021)

How the values were obtained:
DYRK1A = biological target: T1, DYRK1A (Homo sapiens, UniProt Q13627); assay: Kinase inhibition profile, KINOMEscan 11-point dose response; format: binding; conditions: for IC50: 11-point 3-fold serial dilution; for Ki: by Cheng-Prusoff equation
T1 construct: purchased Eurofins DiscoverX Corporation

TRKA = biological target: T2, TRKA (Homo sapiens, UniProt P04629); assay: as above; format: binding; conditions: for IC50: 11-point 3-fold serial dilution; for Ki: by Cheng-Prusoff equation
T2 construct: purchased Eurofins DiscoverX Corporation
T2 sequence (P04629 33-796): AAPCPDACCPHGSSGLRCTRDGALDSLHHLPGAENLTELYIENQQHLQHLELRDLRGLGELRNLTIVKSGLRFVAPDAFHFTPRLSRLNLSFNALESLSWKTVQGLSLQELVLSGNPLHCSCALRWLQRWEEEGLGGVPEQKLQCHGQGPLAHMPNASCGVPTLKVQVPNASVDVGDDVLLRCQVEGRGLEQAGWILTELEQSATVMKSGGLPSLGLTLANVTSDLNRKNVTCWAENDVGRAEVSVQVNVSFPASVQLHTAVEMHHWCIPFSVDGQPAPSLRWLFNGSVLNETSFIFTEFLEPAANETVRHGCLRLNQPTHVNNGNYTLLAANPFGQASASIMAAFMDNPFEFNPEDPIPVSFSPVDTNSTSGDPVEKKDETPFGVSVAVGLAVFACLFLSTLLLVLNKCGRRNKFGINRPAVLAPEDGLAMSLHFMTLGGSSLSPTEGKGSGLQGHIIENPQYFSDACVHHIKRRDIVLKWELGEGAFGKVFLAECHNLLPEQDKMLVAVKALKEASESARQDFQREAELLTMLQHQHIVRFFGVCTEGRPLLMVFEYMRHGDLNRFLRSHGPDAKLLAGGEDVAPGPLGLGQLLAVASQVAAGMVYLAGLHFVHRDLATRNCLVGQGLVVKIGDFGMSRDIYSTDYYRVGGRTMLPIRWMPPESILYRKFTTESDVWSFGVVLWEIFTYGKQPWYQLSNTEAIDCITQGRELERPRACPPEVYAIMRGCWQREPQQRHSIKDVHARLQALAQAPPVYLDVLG

CK1δ = biological target: T3, CK1δ (Homo sapiens, UniProt P48730); assay: as above; format: binding; conditions: for IC50: 11-point 3-fold serial dilution; for Ki: by Cheng-Prusoff equation
T3 construct: purchased Eurofins DiscoverX Corporation
T3 sequence (P48730 whole entry): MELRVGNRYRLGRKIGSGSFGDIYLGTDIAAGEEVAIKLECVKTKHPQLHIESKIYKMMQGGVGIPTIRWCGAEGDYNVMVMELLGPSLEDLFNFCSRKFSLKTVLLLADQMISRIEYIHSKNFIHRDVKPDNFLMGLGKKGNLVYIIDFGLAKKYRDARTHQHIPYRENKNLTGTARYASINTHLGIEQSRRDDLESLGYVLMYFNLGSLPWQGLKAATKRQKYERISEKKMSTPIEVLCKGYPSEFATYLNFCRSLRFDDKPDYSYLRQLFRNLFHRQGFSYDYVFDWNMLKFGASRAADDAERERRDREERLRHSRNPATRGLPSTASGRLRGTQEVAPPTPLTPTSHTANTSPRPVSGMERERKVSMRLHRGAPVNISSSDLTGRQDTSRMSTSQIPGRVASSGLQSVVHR

DYRK1B = biological target: T4, DYRK1B (Homo sapiens, UniProt Q9Y463); assay: as above; format: binding; conditions: for IC50: 11-point 3-fold serial dilution; for Ki: by Cheng-Prusoff equation
T4 construct: purchased Eurofins DiscoverX Corporation
T4 sequence (Q9Y463 whole entry): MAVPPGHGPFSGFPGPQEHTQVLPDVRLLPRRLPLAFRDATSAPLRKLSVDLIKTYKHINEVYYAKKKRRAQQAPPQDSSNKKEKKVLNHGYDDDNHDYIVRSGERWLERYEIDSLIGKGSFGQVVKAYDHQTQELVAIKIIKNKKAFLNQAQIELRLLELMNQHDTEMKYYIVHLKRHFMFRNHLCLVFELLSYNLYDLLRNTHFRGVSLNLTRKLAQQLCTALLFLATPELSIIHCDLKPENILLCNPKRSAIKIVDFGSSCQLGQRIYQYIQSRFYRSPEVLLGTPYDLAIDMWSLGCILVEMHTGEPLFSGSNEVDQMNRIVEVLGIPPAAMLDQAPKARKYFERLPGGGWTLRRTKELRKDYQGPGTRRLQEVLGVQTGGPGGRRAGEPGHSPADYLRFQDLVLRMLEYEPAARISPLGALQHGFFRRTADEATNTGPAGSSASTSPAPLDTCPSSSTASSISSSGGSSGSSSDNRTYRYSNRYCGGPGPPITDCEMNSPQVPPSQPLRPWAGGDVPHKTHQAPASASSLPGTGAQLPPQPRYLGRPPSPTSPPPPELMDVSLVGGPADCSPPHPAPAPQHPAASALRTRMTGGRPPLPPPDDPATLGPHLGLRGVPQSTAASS

SK-HEP-1 = assay: SRB cell proliferation inhibition assay; format: cell-based; conditions: SK-HEP1, human liver cancer cells, 72 h
Description: (§1) Human lung cancer cells (A549), colorectal cancer (HCT116) cells, breast cancer cells (MDA-MB-231), liver cancer cells (SK-HEP-1), and prostate cancer cells (PC-3) were purchased from the American Type Culture Collection (Manassas, VA, USA). Human gastric cancer cells (SNU-638) were purchased from the Korean Cell Line Bank (Seoul, Korea). Cells were cultured in medium (Dulbecco’s modified Eagle’s medium for MDA-MB-231 and SK-HEP-1 cells; Roswell Park Memorial Institute 1640 for A549, HCT116, SNU-638, PC-3 cells) supplemented with penicillin-streptomycin and 10% fetal bovine serum at 37 °C in a humidified incubator with 5% carbon dioxide. Cells were seeded at a density of 4–7 × 10^4 cells/mL in 96-well culture plates, and then treated with indicated compounds for 72 h. At the end of the experiment, cells were fixed with 10% trichloroacetic acid (TCA) solution and subjected to sulforhodamine B (SRB) assay to determine cell proliferation. The percentage of cell proliferation was calculated with the following formula:Cell proliferation (%) = 100 × [(A treated − A zero day)/(A control − A zero day)], where A is the average absorbance. The IC50 values were calculated through non-linear regression analysis using TableCurve 2D v5.01 (Systat Software Inc., San Jose, CA, USA). All experiments were performed in triplicate and data shown are representative of two or three independent experiments.

A549 = assay: SRB cell proliferation inhibition assay; format: cell-based; conditions: human lung cancer cells, 72 h
Description: as §1

HCT116 = assay: SRB cell proliferation inhibition assay; format: cell-based; conditions: HCT-116, human colon cancer cells, 72 h
Description: as §1

SNU638 = assay: SRB cell proliferation inhibition assay; format: cell-based; conditions: SNU-638, human stomach cancer cells, 72 h
Description: as §1

PC-3 = assay: SRB cell proliferation inhibition assay; format: cell-based; conditions: human prostate cancer cells, 72 h
Description: as §1

MDA-MB-231 = assay: SRB cell proliferation inhibition assay; format: cell-based; conditions: human breast cancer cells, 72 h
Description: as §1

| Molecule | IC50 (DYRK1A) [µM] | Ki (DYRK1A) [µM] | IC50 (TRKA) [µM] | IC50 (CK1δ) [µM] | IC50 (DYRK1B) [µM] | Ki (DYRK1B) [µM] | melting point [°C] | Ki (TRKA) [µM] | IC50 (SK-HEP-1) [µM] | IC50 (A549) [µM] | IC50 (HCT116) [µM] | IC50 (SNU638) [µM] | IC50 (PC-3) [µM] | IC50 (MDA-MB-231) [µM] | Ki (CK1δ) [µM] |
| --- | --- | --- | --- | --- | --- | --- | --- | --- | --- | --- | --- | --- | --- | --- | --- |
| Cc1nccc(-c2cn(Cc3ccccc3)c3cnccc23)n1 [AZ Dyrk1B 33, reference compound] | 0.014 | 0.028 | > 10 | > 10 | 0.05 | 0.05 | – | – | – | – | – | – | – | – | – |
| Nc1ncnc2c1c(-c1ccco1)cn2[C@@H]1S[C@H](CO)[C@@H](O)[C@H]1O [Compound 1a, (2R,3R,4S,5R)-2-(4-Amino-5-(furan-2-yl)-7H-pyrrolo[2,3-d]pyrimidin-7-yl)-5-(hydroxymethyl)tetrahydrothiophene-3,4-diol] | 0.015 | 0.03 | 0.037 | 0.123 | 0.014 | 0.014 | 197 to 199 | 0.074 | 3.38 | 1.02 | 2.16 | 1.95 | 2.46 | 3.31 | 0.123 |
| Nc1ncnc2c1c(-c1cccs1)cn2[C@@H]1S[C@H](CO)[C@@H](O)[C@H]1O [Compound 1b, (2R,3R,4S,5R)-2-(4-Amino-5-(thiophen-2-yl)-7H-pyrrolo[2,3-d]pyrimidin-7-yl)-5-(hydroxymethyl)tetrahydrothiophene-3,4-diol] | 0.166 | 0.332 | 0.011 | 0.018 | 0.117 | 0.117 | 166 to 172 | 0.022 | 1.38 | 1.65 | 1.74 | 2.41 | 2.48 | 2.72 | – |
| C=Cc1cn([C@@H]2S[C@H](CO)[C@@H](O)[C@H]2O)c2ncnc(N)c12 [Compound 1c, (2R,3R,4S,5R)-2-(4-Amino-5-vinyl-7H-pyrrolo[2,3-d]pyrimidin-7-yl)-5-(hydroxymethyl)tetrahydrothiophene-3,4-diol] | 0.112 | 0.224 | 0.474 | 0.077 | 0.086 | 0.086 | 110 to 112 | 0.948 | 0.22 | 0.97 | 0.56 | 0.47 | 0.2 | 0.31 | 0.077 |
| Nc1ncnc2c1c(-c1ccccc1)cn2[C@@H]1S[C@H](CO)[C@@H](O)[C@H]1O [Compound 1d, (2R,3R,4S,5R)-2-(4-Amino-5-phenyl-7H-pyrrolo[2,3-d]pyrimidin-7-yl)-5-(hydroxymethyl)tetrahydrothiophene-3,4-diol] | 0.357 | 0.714 | 0.157 | 0.027 | 0.288 | 0.288 | 102 to 104 | 0.314 | 7.81 | 7.57 | 6.35 | 6.32 | 9.21 | 8.83 | 0.027 |
| Nc1ncnc2c1c(-c1ccc(N3CCS(=O)(=O)CC3)cc1)cn2C1SC(CO)C(O)C1O (stereo not drawn) [Compound 1e, 4-(4-(4-Amino-7-(3,4-dihydroxy-5-(hydroxymethyl)tetrahydrothiophen-2-yl)-7H-pyrrolo[2,3-d]pyrimidin-5-yl)phenyl)thiomorpholine 1,1-dioxide] | > 10 | – | > 10 | > 10 | > 10 | – | 188 to 192 | – | > 50 | > 50 | > 50 | > 50 | > 50 | > 50 | – |
| CCS(=O)(=O)Nc1ccc(-c2cn(C3SC(CO)C(O)C3O)c3ncnc(N)c23)cc1 (stereo not drawn) [Compound 1f, N-(4-(4-Amino-7-(3,4-dihydroxy-5-(hydroxymethyl)tetrahydrothiophen-2-yl)-7H-pyrrolo[2,3-d]pyrimidin-5-yl)phenyl)ethanesulfonamide] | > 10 | – | > 10 | 0.91 | > 10 | – | 127 to 132 | – | 10.3 | 41.6 | 30.6 | 27.5 | 15.4 | 30.1 | 0.91 |
| CC#Cc1cn([C@@H]2S[C@H](CO)[C@@H](O)[C@H]2O)c2ncnc(N)c12 [Compound 1h, (2R,3R,4S,5R)-2-(4-Amino-5-(prop-1-yn-1-yl)-7H-pyrrolo[2,3-d]pyrimidin-7-yl)-5-(hydroxymethyl)tetrahydrothiophene-3,4-diol] | 1.26 | 2.51 | 0.293 | 0.97 | 1.07 | 1.07 | 190 to 192 | 0.586 | 6.05 | > 50 | > 50 | > 50 | > 50 | 45.5 | 0.97 |
| CCC#Cc1cn([C@@H]2S[C@H](CO)[C@@H](O)[C@H]2O)c2ncnc(N)c12 [Compound 1i, (2R,3R,4S,5R)-2-(4-Amino-5-(but-1-yn-1-yl)-7H-pyrrolo[2,3-d]pyrimidin-7-yl)-5-(hydroxymethyl)tetrahydrothiophene-3,4-diol] | 2.98 | 5.96 | 0.573 | 0.43 | 1.34 | 1.34 | 161 to 162 | 1.15 | > 50 | > 50 | > 50 | > 50 | > 50 | > 50 | 0.43 |
| CC(C)(C)C#Cc1cn([C@@H]2S[C@H](CO)[C@@H](O)[C@H]2O)c2ncnc(N)c12 [Compound 1j, (2R,3R,4S,5R)-2-(4-Amino-5-(3,3-dimethylbut-1-yn-1-yl)-7H-pyrrolo[2,3-d]pyrimidin-7-yl)-5-(hydroxymethyl)tetrahydrothiophene-3,4-diol] | > 10 | – | 0.958 | 1.32 | > 10 | – | 144 to 146 | – | > 50 | > 50 | > 50 | > 50 | > 50 | 29.6 | 1.32 |
| Nc1ncnc2c1c(C#CC1CC1)cn2[C@@H]1S[C@H](CO)[C@@H](O)[C@H]1O [Compound 1k, (2R,3R,4S,5R)-2-(4-Amino-5-(cyclopropylethynyl)-7H-pyrrolo[2,3-d]pyrimidin-7-yl)-5-(hydroxymethyl)tetrahydrothiophene-3,4-diol] | > 10 | – | 0.393 | 1.78 | > 10 | – | 166 to 168 | – | 8.31 | > 50 | > 50 | > 50 | > 50 | 30.6 | 1.78 |
| COc1cc([C@@H]2c3cc4c(cc3[C@@H](O[C@@H]3O[C@@H]5CO[C@@H](C)O[C@H]5[C@H](O)[C@H]3O)[C@H]3COC(=O)[C@H]23)OCO4)cc(OC)c1O [Etoposide, reference compound] | – | – | – | – | – | – | – | – | 0.91 | 0.36 | 1.11 | 0.41 | 23.4 | 4.9 | – |
| Cc1ccc(NC(=O)Nc2cc(C(F)(F)F)ccc2F)cc1Nc1ccc2c(c1)NC(=O)/C2=C\c1ccc[nH]1 [GNF 5837, reference compound] | > 10 | – | 0.177 | > 10 | > 10 | – | – | – | – | – | – | – | – | – | – |
| Nc1ccn([C@@H]2O[C@H](CO)[C@@H](O)C2(F)F)c(=O)n1 [Gemcitabine, reference compound] | – | – | – | – | – | – | – | – | 0.2 | 0.3 | 0.2 | 0.1 | 3.6 | 1.1 | – |
| COc1ccc2c(c1)[nH]c1c(C)nccc12 [Harmine, reference compound] | – | – | > 10 | – | – | – | – | – | – | – | – | – | – | – | – |
| COc1ncc2cc(C(=O)Nc3cc(C(=O)NCc4cccc(Cl)c4)ccc3Cl)c(=O)[nH]c2n1 [TC-S 7004, reference compound] | < 0.01 | – | > 10 | > 10 | 0.022 | 0.022 | – | – | – | – | – | – | – | – | – |
| LH 846 [reference compound] | > 10 | – | > 10 | 0.08 | > 10 | – | – | – | – | – | – | – | – | – | – |
